Test results from a melting point compilation (Tetko et al.; mined from patent text by program, amines drawn as free bases though some values may be those of a salt).

Structure (SMILES) | melting point
CN(C)c1ccc(C=C2C(=O)NC(=S)NC2=O)cc1 | 272 °C
Cc1ccc2c(c1)CCC1=C2CCC(=O)N1 | 204 to 205 °C
CCOC(=O)c1ccc(/C=C(\C)c2ccc(OC)c(C3(C)CCCCC3)c2)cc1 | 60 to 62 °C
Cc1cccc2cc3c(=O)n(CCOC(=O)NCCN(C)C)cc(C(=O)NCCN(C)C)c3nc12 | 75 to 76 °C
CC(C)c1cc2sccc2c2c3c([nH]c12)CCNC3 | 197 to 199 °C
CCCCc1c(C(=O)OCC)cc(Oc2nnnn2-c2ccccc2)c2ccc(OC)cc12 | 94 to 96 °C
NC(=O)CNC(=O)c1ccc(F)c(-c2cccc3cc(Cc4cc(F)cc(Cl)c4)sc23)c1 | 159 to 160 °C
CCCn1nc(-c2ccc(OC)cc2)c2cccc(-c3ccc(F)cc3)c21 | 110 to 111 °C
CN1C(=O)c2cccnc2Nc2cc(C(F)(F)F)ccc21 | 169 to 172 °C
O=C(O)c1cn(CC2CCCC2)c2cc(Cl)ccc12 | 181 to 184 °C
CCCCc1ccc2oc(=O)c(=O)oc2c1 | 88 to 93 °C
Cc1nc2c(-c3cccc(N4CCN(C)CC4)c3)cnn2c(N)c1-c1cccc(Br)c1 | 107 to 113 °C
CCCCCCCCCCc1ccc2cc(SC)c(OS(=O)(=O)C(F)(F)F)cc2c1 | 149 to 150 °C
COC(=O)c1sc2cccc(C#N)c2c1N | 169 to 170 °C
Cc1cc(Oc2ccc([N+](=O)[O-])c(C(F)(F)F)c2)n[nH]1 | 96 to 98 °C
CCCCCCc1ccc(-c2ccc(-c3ncc(C(=O)OCC)c(O)n3)cc2)cc1 | 91.6 to 91.9 °C
C=C(c1ccccc1OC)c1ccccc1OC | 88 to 90 °C
CC(=O)Nc1ccc2c3c1c(=O)c(C(=O)O)cn3CCC2 | > 300 °C
N#CC1=C(C2=CCNCC2)Nc2n[nH]cc2C1c1cccc2nonc12 (stereo not drawn) | 180 °C
O=C(Nc1ccc([N+](=O)[O-])cc1O)Nc1cc(Cl)ccc1O | 193 to 194 °C
CCN1CCCC(NC(=O)c2ccccc2Nc2ccnc3cc(Cl)ccc23)C1 (stereo not drawn) | 187 to 188 °C
Cc1cccc(NC(=O)NCC(=O)N(CC(=O)OC(C)(C)C)c2ccc(Cl)cc2)c1 | 125 °C
CCOC(=O)C1=NCC(C)(C)c2cc(OC)c3c(c21)CC(C)(C)O3 | 117 to 121 °C

Structure (SMILES) | melting point
Cc1coc(NC(=O)C(c2ccccc2)c2ccccc2)n1 | 209 to 211 °C
O=C(Nc1cccc(-c2ccnc3c(C(=O)c4cccs4)cnn23)c1)c1cccnc1 | 191 to 194 °C
NCc1noc(-c2ncn3c2[C@@H]2CCCN2C(=O)c2sccc2-3)n1 | 156 to 158 °C
CCOCc1nc2c(N)nc(C)c(C)c2n1NC1CCC1 | 139 to 141 °C
COc1ccc(-c2cc(=O)n(Cc3c(Cl)cccc3Cl)nc2-c2ccc(OC)cc2)cc1 | 144 °C
CCCCCCCCCCCCCCCCCCNC(=O)c1ccc(O)cc1 | 105 °C
CCOC(=O)/C=C(C)/C=C/C=C(C)/C=C/c1c(C)cc(OC(F)(F)F)c(C)c1C | 47 to 49 °C
CCCCCCCCCC(O)CNCCCNCC(O)CCCCCCCCC (stereo not drawn) | 94 to 103 °C
O=C(c1ccc(Cl)cc1)c1cc(C2(Nc3ccccc3)OCCO2)ccn1 | 102 to 103 °C
C=C1c2ccccc2CC12CCC(N1CCCCC1)CC2 (stereo not drawn) | 93 to 95 °C
Cc1cccc(C(=O)NC(Nc2c(Nc3cccnc3)c(=O)c2=O)C(C)(C)Cc2ccncc2)c1 (stereo not drawn) | 219 to 221 °C
C[Si](C)(C)c1ccc(C(=O)Nc2nnn[nH]2)o1 | 247 to 248 °C
COC(=O)C1Cc2ccccc2CC(C(=O)OC)C1=O (stereo not drawn) | 100 to 110 °C
C=CCOC(=O)[C@@H]1CCC[C@@H]1C(N)=O (relative stereo) | 35 °C
CNC(=O)CC1CN=C(c2cc3cc(Oc4ccc(COC)nc4)cc(OC)c3[nH]2)S1 (stereo not drawn) | 102 to 104 °C
COc1ccc(-c2cnc3cc4cn[nH]c4cc3n2)cc1F | 175 to 179 °C
CC(N)c1ccc2c(c1)C(c1ccccc1F)=NC(C)(C)C(=O)N2C (stereo not drawn) | 50 to 51 °C
CN1C(=O)C(NC(=O)CC23CC4CC(CC(C)(C4)C2)C3)N=C(c2ccccc2)c2ccccc21 (racemic) | 195 to 196 °C
Cn1ncc(Cl)c(N)c1=O | 106 to 107 °C
O=C(O)c1ccc(Oc2c(-c3ccc(O)cc3)c(C(F)(F)F)cc3ccccc23)cc1 | 244 to 245 °C
O=C1NC(=O)C(=Cc2ccc(OCCN3c4ccccc4Sc4ccccc43)cc2)S1 | 168 to 170 °C
C=CCONC(CCC)=C1C(=O)C=C(C)OC1=O | 52 to 54 °C
CC(C)(C)c1cc(CON2C(=O)COc3ccc(C=C4SC(=S)NC4=O)cc32)cc(C(C)(C)C)n1 | > 300 °C

Now from value to molecule:

melting point | Structure (SMILES)
> 260 °C | COc1cc(Cc2cnc(N)nc2N)cc2c1OC(C)(C)C=C2c1ccccc1
219 °C | COC(=O)C1=CCC2=Nc3ccccc3C2=C1C(=O)OC
175 to 177 °C | COc1cccc(-c2cc3c(n2-c2ccc(O)c(C(=O)O)c2)CCCC3)c1
115 to 116 °C | COC(=O)c1[nH]c2c(C)ccc(C)c2c1Cl
247 °C | NS(=O)(=O)c1cccc(-c2noc(-c3cnn4c(C(F)(F)F)cc(-c5ccc(Cl)cc5)nc34)n2)c1
152 to 154 °C | O=C(O)[C@@H]1CCCN1C(=O)c1ccccc1
111 to 122 °C | O=C(Nc1ccc(OC(F)(F)F)cc1)NC1CCN(C(=O)CN2CCNCC2)CC1
104 to 105 °C | Nc1cc(Cl)ccc1CO
107 °C | COc1cc(OCC(O)CCl)cc2oc3ccccc3c(=O)c12 (stereo not drawn)
257 to 258 °C | NS(=O)(=O)c1ccc(NCC(=O)Nc2ccccc2)cc1
316 to 318 °C | Oc1cc(-c2ccc(F)cc2)nc2ccsc12
138 to 141 °C | Cc1cccc(N2CCCC2=O)c1CNc1cccn2c(C)c(C)nc12
124 to 126 °C | C=C(c1ccc(OC)cc1)c1ccc(N(C)C)cc1
201 to 202 °C | CC(C)Cn1c(CNC(=O)OC(C)(C)C)c(-c2ccc(F)cc2)c2cc(/C=C/C(=O)O)ccc2c1=O
88 °C | Fc1ccc(C(Cl)(c2ccccc2)c2ccccc2)cc1
107 to 108 °C | CCOC(=O)c1cc2ccccc2n1Cc1ccc(Cl)cc1
212 °C | CC(C)(C)OC(=O)C=Cc1ccc(-c2ccc3ncnc(Nc4ccc(OCc5cccc(F)c5)c(Cl)c4)c3c2)cc1
160 °C | Nc1c(Cl)ccc2c1C(=O)CO2
263 to 266 °C | COc1ccc2c(c1)NC(=O)C2=Cc1[nH]c2c(c1CCC(=O)O)CCCC2
117 °C | COc1ccc([N+](=O)[O-])cc1NC(=O)CCCCC1CCSS1 (stereo not drawn)
188 to 190 °C | CC(F)(F)C1(O)c2cc(Cl)ccc2Nc2ncccc21 (stereo not drawn)
165 to 167 °C | CN(C[C@H](O)[C@@H](O)[C@H](O)[C@H](O)CO)C(=O)c1ccc2n1Cc1ccccc1N(C(=O)c1ccc(-c3cccc4ccccc34)nc1)C2
89 to 90 °C | CSc1cncnc1-c1ssc(=S)c1C
> 300 °C | Nc1nc2c(c(=O)[nH]1)CCCC2
190 to 192 °C | CNC(=O)COc1cc(-n2c(=O)cc(C(F)(F)F)n(C)c2=O)c(F)cc1Cl
136 °C | CN(C)c1cccc(C(=O)NCCc2c3n(c4ccccc24)C(=O)CCC3)c1
160 to 162 °C | c1nnc2c3c(c(NCCN4CCCC4)nn12)CCCC3
